Measurements published in publication PMC9516332 (Frontiers in Oncology, 2022).
Like-named read-outs stand apart in the source and are kept apart here.

Legend:
[1] = target: panel of 255 wild-type kinases (Homo sapiens, UniProt P06241); experiment: Kinase panel profiling at 1 µmol/L (MSA or IMAP), percentage inhibition; type: biochemical; conditions: kinase FYN [isoform a]; 1 µmol/L single concentration; read-out: %-inhibition at 1 µmol/L, FYN [isoform a]
[2] = target: panel of 255 wild-type kinases (Homo sapiens, UniProt P48729); experiment: as above; type: biochemical; conditions: kinase CK1α; 1 µmol/L single concentration; read-out: %-inhibition at 1 µmol/L, CK1α
[3] = target: panel of 255 wild-type kinases (Homo sapiens, UniProt Q13882); experiment: as above; type: biochemical; conditions: BRK kinase assay; 1 µmol/L single concentration; read-out: %-inhibition BRK
[4] = target: panel of 255 wild-type kinases (Homo sapiens, UniProt Q16816); experiment: as above; type: biochemical; conditions: kinase PHKG1; 1 µmol/L single concentration; read-out: %-inhibition at 1 µmol/L, PHKG1
[5] = target: panel of 255 wild-type kinases (Homo sapiens, UniProt Q9H422); experiment: as above; type: biochemical; conditions: kinase HIPK3; 1 µmol/L single concentration; read-out: %-inhibition at 1 µmol/L, HIPK3
AP-1060 (ETV6-NTRK3) = experiment: Cell viability assay; conditions: read-out: IC50 in cell proliferation assay
134 cancer cell lines = experiment: Cell viability assay (ATPlite, 72 hours), IC50 on cancer cell line panel

`CCN1C(=O)N(c2c(F)c(OC)cc(OC)c2F)Cc2cnc3[nH]c(CN4CCOCC4)cc3c21` [pemigatinib] showed an inhibition at 1 µM [1] of 9%, an inhibition at 1 µM [2] of 2.22% and an inhibition at 1 µM [3] of 11%. The inhibition at 1 µM [4] was 6%, the inhibition at 1 µM [5] was 0.456% and the IC50 (AP-1060 (ETV6-NTRK3)) was 3420 nM. For the same compound, the IC50 (134 cancer cell lines; HEC-6, read-out: IC50 in cell proliferation assay) was 2490 nM, the IC50 (134 cancer cell lines; Homo sapiens, 769-P, read-out: IC50 in cell proliferation assay) was 2530 nM and the IC50 (134 cancer cell lines; Homo sapiens, 786-0, read-out: IC50 in cell proliferation assay) was 2710 nM. For the same compound, the IC50 (134 cancer cell lines; Homo sapiens, A 172, read-out: IC50 in cell proliferation assay) was 29 nM, the IC50 (134 cancer cell lines; Homo sapiens, A204, read-out: IC50 in cell proliferation assay) was 29 nM and the IC50 (134 cancer cell lines; Homo sapiens, A498, read-out: IC50 in cell proliferation assay) was 1130 nM. For the same compound, the IC50 (134 cancer cell lines; Homo sapiens, A549, read-out: IC50 in cell proliferation assay) was 4020 nM, the IC50 (134 cancer cell lines; Homo sapiens, A704, read-out: IC50 in cell proliferation assay) was 1280 nM and the IC50 (134 cancer cell lines; Homo sapiens, A-375, read-out: IC50 in cell proliferation assay) was 3030 nM. For the same compound, the IC50 (134 cancer cell lines; Homo sapiens, A-427, read-out: IC50 in cell proliferation assay) was 1.43 nM, the IC50 (134 cancer cell lines; Homo sapiens, ACHN, read-out: IC50 in cell proliferation assay) was 989 nM and the IC50 (134 cancer cell lines; Homo sapiens, AN3-CA, read-out: IC50 in cell proliferation assay) was 22 nM. The IC50 (134 cancer cell lines; Homo sapiens, ASPC1, read-out: IC50 in cell proliferation assay) was 3160 nM, the IC50 (134 cancer cell lines; Homo sapiens, AU565, read-out: IC50 in cell proliferation assay) was 3260 nM and the IC50 (134 cancer cell lines; Homo sapiens, BT-20, read-out: IC50 in cell proliferation assay) was 2840 nM. It also gave an IC50 (134 cancer cell lines; Homo sapiens, BT-474, read-out: IC50 in cell proliferation assay) of over 31600 nM, an IC50 (134 cancer cell lines; Homo sapiens, BT-549, read-out: IC50 in cell proliferation assay) of 17 nM and an IC50 (134 cancer cell lines; Homo sapiens, BXPC-3, read-out: IC50 in cell proliferation assay) of 1200 nM. It also gave an IC50 (134 cancer cell lines; Homo sapiens, C-33-A, read-out: IC50 in cell proliferation assay) of 2710 nM, an IC50 (134 cancer cell lines; Homo sapiens, CAL-27, read-out: IC50 in cell proliferation assay) of 2650 nM and an IC50 (134 cancer cell lines; Homo sapiens, CCF-STTG1, read-out: IC50 in cell proliferation assay) of over 31600 nM. The IC50 (134 cancer cell lines; Homo sapiens, CCRF-CEM, read-out: IC50 in cell proliferation assay) was 3600 nM, the IC50 (134 cancer cell lines; Homo sapiens, COLO 205, read-out: IC50 in cell proliferation assay) was 2980 nM and the IC50 (134 cancer cell lines; Homo sapiens, COLO-829, read-out: IC50 in cell proliferation assay) was 3230 nM. It also gave an IC50 (134 cancer cell lines; Homo sapiens, DLD-1, read-out: IC50 in cell proliferation assay) of 2270 nM, an IC50 (134 cancer cell lines; Homo sapiens, DU-145, read-out: IC50 in cell proliferation assay) of 1600 nM and an IC50 (134 cancer cell lines; Homo sapiens, DU-4475, read-out: IC50 in cell proliferation assay) of 5830 nM. It also gave an IC50 (134 cancer cell lines; Homo sapiens, Daoy, read-out: IC50 in cell proliferation assay) of 1400 nM, an IC50 (134 cancer cell lines; Homo sapiens, DoTc2-4510, read-out: IC50 in cell proliferation assay) of 3190 nM and an IC50 (134 cancer cell lines; Homo sapiens, EOL1, read-out: IC50 in cell proliferation assay) of 1110 nM. The IC50 (134 cancer cell lines; Homo sapiens, FaDu, read-out: IC50 in cell proliferation assay) was 2600 nM, the IC50 (134 cancer cell lines; Homo sapiens, G-361, read-out: IC50 in cell proliferation assay) was 2570 nM and the IC50 (134 cancer cell lines; Homo sapiens, HCC827, read-out: IC50 in cell proliferation assay) was 3200 nM. It also gave an IC50 (134 cancer cell lines; Homo sapiens, HCC4006, read-out: IC50 in cell proliferation assay) of 2620 nM, an IC50 (134 cancer cell lines; Homo sapiens, HCT-15, read-out: IC50 in cell proliferation assay) of 2820 nM and an IC50 (134 cancer cell lines; Homo sapiens, HCT-116, read-out: IC50 in cell proliferation assay) of 2400 nM. It also gave an IC50 (134 cancer cell lines; Homo sapiens, HEC-1, read-out: IC50 in cell proliferation assay) of 2370 nM, an IC50 (134 cancer cell lines; Homo sapiens, HEC-1B, read-out: IC50 in cell proliferation assay) of 2740 nM and an IC50 (134 cancer cell lines; Homo sapiens, HL-60, read-out: IC50 in cell proliferation assay) of 2450 nM. The IC50 (134 cancer cell lines; Homo sapiens, HT, read-out: IC50 in cell proliferation assay) was over 31600 nM, the IC50 (134 cancer cell lines; Homo sapiens, HT-1080, read-out: IC50 in cell proliferation assay) was 1060 nM and the IC50 (134 cancer cell lines; Homo sapiens, Hs746T, read-out: IC50 in cell proliferation assay) was 1840 nM. The IC50 (134 cancer cell lines; Homo sapiens, Hs-578T, read-out: IC50 in cell proliferation assay) was 3780 nM, the IC50 (134 cancer cell lines; Homo sapiens, HuTu80, read-out: IC50 in cell proliferation assay) was 3.58 nM and the IC50 (134 cancer cell lines; Homo sapiens, J82, read-out: IC50 in cell proliferation assay) was 1130 nM. The IC50 (134 cancer cell lines; Homo sapiens, Jurkat E6.1, read-out: IC50 in cell proliferation assay) was 2890 nM, the IC50 (134 cancer cell lines; Homo sapiens, K562, read-out: IC50 in cell proliferation assay) was 3770 nM and the IC50 (134 cancer cell lines; Homo sapiens, KATO III, read-out: IC50 in cell proliferation assay) was 1.77 nM. For the same compound, the IC50 (134 cancer cell lines; Homo sapiens, KG-1, read-out: IC50 in cell proliferation assay) was 1.08 nM, the IC50 (134 cancer cell lines; Homo sapiens, KLE, read-out: IC50 in cell proliferation assay) was 1820 nM and the IC50 (134 cancer cell lines; Homo sapiens, KMS-11, read-out: IC50 in cell proliferation assay) was 16 nM. The IC50 (134 cancer cell lines; Homo sapiens, KU812, read-out: IC50 in cell proliferation assay) was 4660 nM, the IC50 (134 cancer cell lines; Homo sapiens, Kasumi 1, read-out: IC50 in cell proliferation assay) was 1290 nM and the IC50 (134 cancer cell lines; Homo sapiens, LC-2-ad, read-out: IC50 in cell proliferation assay) was 3280 nM.
